Read-outs that look alike come from different tables or passages of the source.
Columns and labels:
A375-NRAS^Q61K cells = assay: CTGlo Cell Viability Assay, A375-NRAS^Q61K (A375.11) cells, 96 hours; assay type: cell-based, human; conditions: A375.11 (A375-NRAS^Q61K) cells; for CTGlo A375.11 96 hours Emax / Emax: lowest % viability achieved
Description: Compounds of this invention were tested for their effect on the viability of A375-NRAS^Q61K cells by quantification of ATP using the CellTiter-Glo® 2.0 Cell Viability Assay (Catalog No. G9243, Promega, Madison, WI, USA). This assay produces a luminescent signal in the presence of ATP, which is indicative of metabolically active cells, making the luminescence readout proportional to the number of viable cells.
A375-NRAS^Q61K cells (harboring BRAF homozygous V600E mutation and NRAS homozygous Q61K mutation) were purchased from ATCC (Catalog No. CRL-1619IG-2, Manassas, VA, USA). A375-NRAS^Q61K cells (also referred to here as A375.11) were maintained at 37° C. in an atmosphere of 5% CO2 in Dulbecco's modified Eagle Medium (DMEM) with high glucose (Catalog No. 11965092), supplemented with 10% fetal bovine serum (FBS; Catalog No. 10437036), and 10 mM HEPES (Catalog No. 15630130), all obtained from Thermofisher Scientific (Waltham, MA, USA). Cell culture flasks and 384-well microplates were acquired from VWR (Radnor, PA, USA).
Test compounds were prepared by dissolving neat compounds in DMSO (Catalog No. D8418, Sigma-Aldrich, Inc., St. Louis, MO, USA) to generate 10 mM stock solutions, which were serially diluted (half log) in DMSO to generate an 11-point dose series (1000× final treatment concentration) in a 384-Well Low Dead Volume Microplate (Catalog No. LP-0200, Labcyte, San Jose, CA, USA). Using the Echo 550 Acoustic Liquid Handler (Labcyte), 50 nL of serially diluted compound solutions were dispensed in duplicate to 384-well TC-treated microplates (Catalog No. 3571, Corning, Glendale, CA, USA) and 50 nL of DMSO was dispensed to control wells. A375-NRAS^Q61K cells were resuspended in growth media and added to 384-well plates containing a […] of compounds in duplicate (maximum 10 μM concentration for final treatment) at a density of 250 cells/well in 50 μl. Cells were also plated to a 384-well plate with no compound treatment, to which CellTiter-Glo® reagent was added and luminescence was read right after plating to act as a baseline signal at time of plating (To). Plates treated with compound were then spun briefly, and cells were incubated with compound at 37° C. for 96 hours.
After 96 hours compound treatment, CellTiter-Glo® reagent was added to the cells at 25 μl per well and luminescence was read out on the PHERAstar plate reader (BMG Labtech, Ortenberg, Germany). Cells treated with DMSO only (no test compound treatment) were used as the negative control (N). DMSO treated cells with no CellTiter-Glo® reagent added were used as the background or positive control (P). Viability was determined by subtracting out the average background signal (P) and normalized to the average untreated signal (N) set at 100%.
Data were analyzed with a 4-parameter logistic fit to generate sigmoidal dose-response curves. The half-maximal inhibition of cell growth (GI50) is the concentration at which the fitted curve crosses 50%. The Emax, or maximum effect of each compound, represents the lowest % viability achieved following compound treatment.

BRAF V600E = target: T1, BRAF V600E (Homo sapiens, UniProt P15056+Q96SW2, V600E); assay: BRAF V600E HiBiT Degradation Assay; assay type: cell-based
T1 construct: knock-in of the HiBiT tag to the endogenous BRAF V600E locus; host or cells: A375.10 (A375 clonal line, CRISPR HiBiT knock-in at the endogenous BRAF V600E locus)
Description: Compounds of this invention were tested for degradation of mutant BRAF V600E using the HiBiT assay, a luminescence-based assay for quantification of cellular protein levels using the Nano-Glo® HiBiT Lytic Detection System (Catalog No. N3050, Promega, Madison, WI USA). This assay utilizes the HiBiT tag on a protein of interest, which creates a luminescent signal in the presence of a complementing peptide and its substrate, the quantification of which is proportional to the amount of HiBiT-tagged protein in the cell.
The cell line A375, which is homozygous for the BRAF V600E mutation, was purchased from ATCC (Catalog No. CRL-1619, Manassas, VA, USA). A375 cells were engineered to express HiBiT tagged BRAF V600E by CRISPR knock-in of the HiBiT tag to the endogenous BRAF V600E locus, followed by selection of a clonal population containing the appropriate knock-in (referred to here as cell line A375.10). A375.10 cells were maintained at 37° C. in an atmosphere of 5% CO2 in Dulbecco's modified Eagle Medium (DMEM) with high glucose (Catalog No. 11965092), supplemented with 10% fetal bovine serum (FBS; Catalog No. 10437036), and 10 mM HEPES (Catalog No. 15630130), all obtained from Thermofisher Scientific (Waltham, MA, USA). Cell culture flasks and 384-well microplates were acquired from VWR (Radnor, PA, USA).
Test compounds were prepared by dissolving neat compounds in DMSO (Catalog No. D8418, Sigma-Aldrich, Inc., St. Louis, MO, USA) to generate 10 mM stock solutions, which were serially diluted (half log) in DMSO to generate an 11-point dose series (1000× final treatment concentration) in a 384-Well Low Dead Volume Microplate (Catalog No. LP-0200, Labcyte, San Jose, CA, USA). Using the Echo 550 Acoustic Liquid Handler (Labcyte), 30 nL of serially diluted compound solutions were dispensed in duplicate to 384-well TC-treated microplates (Catalog No. 3571, Corning, Glendale, CA, USA) and 30 nL of DMSO was dispensed to control wells. A375.10 cells resuspended in growth media without phenol red (Catalog No. 21063-029, Thermofisher Scientific) were then added to 384-well plates containing the 11-point dose series of compounds in duplicate (maximum 10 μM concentration for final treatment) at a density of 12,000 cells/well in 30 μl. Plates were then spun briefly, and cells were incubated with compound at 37° C. for 2 hours, 6 hours, or 24 hours.
Following the appropriate treatment time, Nano-Glo® HiBiT Lytic Assay reagents were added to the cells per the manufacturer's instructions by adding 30 μl of reagent per well, and the luminescence signal was acquired by plate reader. Cells treated with DMSO only (no test compound treatment) were used as the negative control (N). Media only (no cells added) with Nano-Glo reagent addition was used as the background or positive control (P). The percent response of compound treated samples were calculated by subtracting out the background signal (P) and normalizing to the DMSO control (N) as follows.
% Response=100×(Treated Signal−Average (P))/(Average (N)−Average (P)).
Data were analyzed with a 4-parameter logistic fit to generate sigmoidal dose-response curves. The DC50 is the concentration of compound at which 50% of the cellular BRAF V600E has been degraded. The Emax, or maximum effect of each compound, represents the amount of residual protein remaining in the cell following compound treatment. The IP, or inflection point of the dose-response curve, is the concentration of compound at which 50% of the observed degradation response is achieved.
The experiment was conducted at least once for each compound. If the experiment was conducted multiple times, the data shown in the table is the average of the two or more experiments.

[1] = A375.10 cells, BRAF V600E, 2 hours, inflection point, read-out: HiBiT-Degradation A375.10 BRAF 2 hours IP
[2] = A375.10 cells, BRAF V600E, 2 hours, read-out: HiBiT-Degradation A375.10 BRAF 2 hours DC50
[3] = A375.10 cells, BRAF V600E, 2 hours, residual protein remaining, read-out: HiBiT-Degradation A375.10 BRAF 2 hours Emax

T1 sequence (P15056 whole entry V600E): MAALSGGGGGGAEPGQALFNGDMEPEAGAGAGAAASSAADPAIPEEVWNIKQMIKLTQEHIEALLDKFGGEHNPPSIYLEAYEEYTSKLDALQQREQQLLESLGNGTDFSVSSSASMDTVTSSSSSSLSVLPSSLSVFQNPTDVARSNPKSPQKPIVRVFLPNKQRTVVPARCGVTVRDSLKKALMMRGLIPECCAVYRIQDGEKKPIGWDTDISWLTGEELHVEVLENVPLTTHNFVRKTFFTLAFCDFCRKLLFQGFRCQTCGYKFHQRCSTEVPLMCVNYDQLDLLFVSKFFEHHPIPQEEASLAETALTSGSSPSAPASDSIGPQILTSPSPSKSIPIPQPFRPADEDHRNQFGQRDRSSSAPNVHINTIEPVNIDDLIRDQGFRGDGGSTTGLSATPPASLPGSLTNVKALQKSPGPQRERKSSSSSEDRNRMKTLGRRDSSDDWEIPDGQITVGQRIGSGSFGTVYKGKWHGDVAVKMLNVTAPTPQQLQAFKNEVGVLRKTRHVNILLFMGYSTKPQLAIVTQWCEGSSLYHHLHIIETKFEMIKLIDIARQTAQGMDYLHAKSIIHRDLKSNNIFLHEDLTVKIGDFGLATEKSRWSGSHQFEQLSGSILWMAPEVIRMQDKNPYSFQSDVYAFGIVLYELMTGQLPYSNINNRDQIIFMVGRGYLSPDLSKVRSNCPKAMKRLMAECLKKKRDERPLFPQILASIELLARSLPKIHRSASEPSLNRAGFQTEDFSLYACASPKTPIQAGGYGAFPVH
T1 sequence (Q96SW2 whole entry): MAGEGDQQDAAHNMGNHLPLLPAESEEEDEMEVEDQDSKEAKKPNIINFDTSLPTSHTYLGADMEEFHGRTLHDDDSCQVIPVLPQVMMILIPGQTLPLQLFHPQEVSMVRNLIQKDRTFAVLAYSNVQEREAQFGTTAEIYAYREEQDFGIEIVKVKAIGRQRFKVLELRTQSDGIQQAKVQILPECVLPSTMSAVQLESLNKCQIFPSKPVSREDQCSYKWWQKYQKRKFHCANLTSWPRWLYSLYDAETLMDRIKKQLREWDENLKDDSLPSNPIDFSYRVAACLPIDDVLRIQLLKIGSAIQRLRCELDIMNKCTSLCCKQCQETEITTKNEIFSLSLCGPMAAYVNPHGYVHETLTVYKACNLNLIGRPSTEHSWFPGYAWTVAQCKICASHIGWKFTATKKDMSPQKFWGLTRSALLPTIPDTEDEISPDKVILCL
T1 sequence (Q16531 whole entry partner): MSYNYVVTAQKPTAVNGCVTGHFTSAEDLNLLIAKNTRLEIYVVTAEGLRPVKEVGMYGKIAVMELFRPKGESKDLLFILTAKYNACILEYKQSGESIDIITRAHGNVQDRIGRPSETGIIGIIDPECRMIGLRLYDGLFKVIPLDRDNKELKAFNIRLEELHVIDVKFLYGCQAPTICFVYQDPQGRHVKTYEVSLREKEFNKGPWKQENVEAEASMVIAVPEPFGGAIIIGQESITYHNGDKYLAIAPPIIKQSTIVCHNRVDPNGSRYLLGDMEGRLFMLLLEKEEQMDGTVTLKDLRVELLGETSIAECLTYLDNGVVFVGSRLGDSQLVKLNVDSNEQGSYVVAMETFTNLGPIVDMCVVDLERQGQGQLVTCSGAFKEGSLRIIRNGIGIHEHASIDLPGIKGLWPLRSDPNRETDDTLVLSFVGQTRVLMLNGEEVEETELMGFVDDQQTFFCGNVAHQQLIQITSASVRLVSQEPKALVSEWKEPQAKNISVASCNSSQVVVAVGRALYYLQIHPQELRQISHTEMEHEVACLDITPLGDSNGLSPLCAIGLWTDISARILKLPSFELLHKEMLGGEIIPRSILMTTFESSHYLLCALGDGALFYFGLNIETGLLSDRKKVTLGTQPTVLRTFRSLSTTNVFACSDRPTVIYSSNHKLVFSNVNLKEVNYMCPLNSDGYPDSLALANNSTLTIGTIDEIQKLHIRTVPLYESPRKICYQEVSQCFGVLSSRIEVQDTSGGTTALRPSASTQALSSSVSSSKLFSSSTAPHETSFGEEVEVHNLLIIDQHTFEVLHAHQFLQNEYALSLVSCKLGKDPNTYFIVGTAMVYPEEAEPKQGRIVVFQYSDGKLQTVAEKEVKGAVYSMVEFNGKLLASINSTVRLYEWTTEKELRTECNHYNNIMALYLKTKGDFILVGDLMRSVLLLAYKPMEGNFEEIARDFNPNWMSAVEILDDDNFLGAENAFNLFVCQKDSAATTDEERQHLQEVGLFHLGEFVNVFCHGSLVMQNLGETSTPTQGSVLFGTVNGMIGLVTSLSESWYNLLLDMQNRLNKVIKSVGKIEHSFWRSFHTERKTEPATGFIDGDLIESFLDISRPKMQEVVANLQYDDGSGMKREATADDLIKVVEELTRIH

| SMILES | GI50 (A375-NRAS^Q61K cells) [µM] | CTGlo A375.11 96 hours Emax (A375-NRAS^Q61K cells) | DC50 (BRAF V600E; [1]) [µM] | DC50 (BRAF V600E; [2]) [µM] | HiBiT-Degradation A375.10 BRAF 2 hours Emax (BRAF V600E; A375.10 cells, BRAF V600E, 2 hours, residual protein remaining) | GI50 (A375-NRAS^Q61K cells; Homo sapiens, 96 h) [µM] | Emax (A375-NRAS^Q61K cells; Homo sapiens, 96 h) [%] | Emax (BRAF V600E; [3]) [%] | DC50 (BRAF V600E; A375.10 cells, HiBiT, BRAF V600E, 24 hours, read-out: HiBiT-Degradation A375.10 BRAF 24 hours DC50) [µM] | Emax (BRAF V600E; A375.10 cells, HiBiT, BRAF V600E, 24 hours, read-out: HiBiT-Degradation A375.10 BRAF 24 hours Emax) [%] | DC50 (BRAF V600E; A375.10 cells, HiBiT, BRAF V600E, 24 hours, read-out: HiBiT-Degradation A375.10 BRAF 24 hours IP) [µM] | HiBiT-Degradation A375.10 BRAF 2 hours Emax (BRAF V600E) |
| --- | --- | --- | --- | --- | --- | --- | --- | --- | --- | --- | --- | --- |
| CN(CCO)S(=O)(=O)Nc1ccc(F)c(Oc2ccc3ncc(C4CC5(CCN(C6CCC(c7cc8c(cc7F)c(N7CCC(=O)NC7=O)nn8C)CC6)CC5)C4)nc3c2)c1C#N (single isomer, unassigned) [Compound 295, 7-[2-cyano-6-fluoro-3-[[2-hydroxyethyl(methyl)sulfamoyl]amino]phenoxy]-2-[7-[4-[3-(2,4-dioxohexahydropyrimidin-1-yl)-5-fluoro-1-methyl-indazol-6-yl]cyclohexyl]-7-azaspiro[3.5]nonan-2-yl]quinoxaline] | 1 to 10 | * (>=90%) | < 1 | < 1 | ** (<90% and >50%) | – | – | – | – | – | – | – |
| CCN(C)S(=O)(=O)Nc1ccc(F)c(Oc2ccc3ncn([C@H]4COC5(CCN(CC6CN(c7cc8c(cc7F)c(N7CCC(=O)NC7=O)nn8C)C6)CC5)C4)c(=O)c3c2)c1C#N [Compound 231, (3R)-3-[6-[2-cyano-3-[[ethyl(methyl)sulfamoyl]amino]-6-fluoro-phenoxy]-4-oxo-quinazolin-3-yl]-8-[[1-[3-(2,4-dioxohexahydropyrimidin-1-yl)-5-fluoro-1-methyl-indazol-6-yl]azetidin-3-yl]methyl]-1-oxa-8-azaspiro[4.5]decane] | – | – | < 1 | < 1 | – | 1 to 10 | 50 to 90 | 50 to 90 | < 1 | < 50 | < 1 | – |
| CCN(C)S(=O)(=O)Nc1ccc(F)c(Oc2ccc3ncc([C@@H]4COC5(CCN(C6CCC(c7ccc(NC8CCC(=O)NC8=O)cc7F)CC6)CC5)C4)nc3c2)c1C#N (single isomer, unassigned) [Compound 61] | > 10 | ** (<90% and >50%) | < 1 | 1 to 10 | – | – | – | – | – | – | – | ** (<90% and >50%) |
| CCN(C)S(=O)(=O)Nc1ccc(F)c(Oc2ccc3ncn(C4CC5(CCN(C6CC7(C6)CN(c6cc8c(cc6F)c(N6CCC(=O)NC6=O)nn8C)C7)C5)C4)c(=O)c3c2)c1C#N (single isomer, unassigned) [Compound 301, 6-[2-cyano-3-[[ethyl(methyl)sulfamoyl]amino]-6-fluoro-phenoxy]-3-[6-[2-[3-(2,4-dioxohexahydropyrimidin-1-yl)-5-fluoro-1-methyl-indazol-6-yl]-2-azaspiro[3.3]heptan-6-yl]-6-azaspiro[3.4]octan-2-yl]-4-oxo-quinazoline] | – | – | < 1 | < 1 | – | < 1 | 50 to 90 | 50 to 90 | – | – | – | – |
| CCN(C)S(=O)(=O)Nc1ccc(F)c(Oc2ccc3ncn(CC4CCN(C5CC6(C5)CN(c5cc7c(cc5F)c(N5CCC(=O)NC5=O)nn7C)C6)CC4)c(=O)c3c2)c1C#N [Compound 258, 6-[2-cyano-3-[[ethyl(methyl)sulfamoyl]amino]-6-fluoro-phenoxy]-3-[[1-[2-[3-(2,4-dioxohexahydropyrimidin-1-yl)-5-fluoro-1-methyl-indazol-6-yl]-2-azaspiro[3.3]heptan-6-yl]-4-piperidyl]methyl]-4-oxo-quinazoline] | – | – | < 1 | 1 to 10 | – | > 10 | 50 to 90 | 50 to 90 | – | – | – | – |
| CN(CCO)S(=O)(=O)Nc1ccc(F)c(Oc2ccc3ncn(C4CC5(CCN(C6CCC(c7cc8c(cc7F)c(N7CCC(=O)NC7=O)nn8C)CC6F)CC5)C4)c(=O)c3c2)c1C#N (single isomer, unassigned) [Compound 146, 6-[2-cyano-6-fluoro-3-[[2-hydroxyethyl(methyl)sulfamoyl]amino]phenoxy]-3-[7-[4-[3-(2,4-dioxohexahydropyrimidin-1-yl)-5-fluoro-1-methyl-indazol-6-yl]-2-fluoro-cyclohexyl]-7-azaspiro[3.5]nonan-2-yl]-4-oxo-quinazoline] | > 10 | ** (<90% and >50%) | < 1 | > 10 | – | – | – | – | – | – | – | ** (<90% and >50%) |
